Measurements: the NIST ThermoML archive (doi:10.1021/je400830w)
Numbers after ± are expanded uncertainties.

Assay: wn = mass fraction of the nth substance listed
Conditions: 100 kPa, Liquid; for mass density: Vibrating tube method

Q: Which mass density (298.15 K, w1 = 0.05) does the source give for `O=C([O-])[C@@H]1CCCN1.[Na+]` [sodium L-prolinate] + O here?
A: 1015.28 ± 0.79 kg/m3

Q: What about the mass density (298.15 K, w1 = 0.1) of the same compound?
A: 1033.9 ± 0.81 kg/m3

Q: And the mass density (298.15 K, w1 = 0.2)?
A: 1071.61 ± 0.85 kg/m3

Q: And the mass density (298.15 K, w1 = 0.3)?
A: 1109.81 ± 0.91 kg/m3

Q: And the mass density (298.15 K, w1 = 0.4)?
A: 1148.69 ± 0.98 kg/m3

Q: What about the viscosity (298.15 K, w1 = 0.05) of the same compound?
A: 1.16 ± 0.025 mPa·s

Q: And the viscosity (298.15 K, w1 = 0.1)?
A: 1.456 ± 0.03 mPa·s

Q: What about the viscosity (298.15 K, w1 = 0.2) of the same compound?
A: 2.292 ± 0.045 mPa·s

Q: And the viscosity (298.15 K, w1 = 0.3)?
A: 3.787 ± 0.072 mPa·s

Q: And the viscosity (298.15 K, w1 = 0.4)?
A: 5.56 ± 0.1 mPa·s

Q: What about the mass density (303.15 K, w1 = 0.05) of the same compound?
A: 1013.73 ± 0.79 kg/m3

Q: What about the mass density (303.15 K, w1 = 0.1) of the same compound?
A: 1032.18 ± 0.8 kg/m3

Q: What about the mass density (303.15 K, w1 = 0.2) of the same compound?
A: 1069.51 ± 0.84 kg/m3

Q: And the mass density (303.15 K, w1 = 0.3)?
A: 1106.73 ± 0.9 kg/m3

Q: What about the mass density (303.15 K, w1 = 0.4) of the same compound?
A: 1145.79 ± 0.99 kg/m3

Q: What about the viscosity (303.15 K, w1 = 0.05) of the same compound?
A: 1.02 ± 0.023 mPa·s

Q: And the viscosity (303.15 K, w1 = 0.1)?
A: 1.267 ± 0.027 mPa·s

Q: And the viscosity (303.15 K, w1 = 0.2)?
A: 1.967 ± 0.039 mPa·s

Q: And the viscosity (303.15 K, w1 = 0.3)?
A: 3.327 ± 0.063 mPa·s

Q: What about the viscosity (303.15 K, w1 = 0.4) of the same compound?
A: 4.801 ± 0.087 mPa·s

Q: What about the mass density (308.15 K, w1 = 0.05) of the same compound?
A: 1011.98 ± 0.78 kg/m3

Q: And the mass density (308.15 K, w1 = 0.1)?
A: 1030.28 ± 0.8 kg/m3

Q: What about the mass density (308.15 K, w1 = 0.2) of the same compound?
A: 1067.29 ± 0.83 kg/m3

Q: And the mass density (308.15 K, w1 = 0.3)?
A: 1104.08 ± 0.9 kg/m3

Q: What about the mass density (308.15 K, w1 = 0.4) of the same compound?
A: 1142.83 ± 0.98 kg/m3

Q: What about the viscosity (308.15 K, w1 = 0.05) of the same compound?
A: 0.9028 ± 0.021 mPa·s

Q: And the viscosity (308.15 K, w1 = 0.1)?
A: 1.114 ± 0.025 mPa·s

Q: What about the viscosity (308.15 K, w1 = 0.2) of the same compound?
A: 1.702 ± 0.035 mPa·s

Q: What about the viscosity (308.15 K, w1 = 0.3) of the same compound?
A: 2.923 ± 0.055 mPa·s

Q: What about the viscosity (308.15 K, w1 = 0.4) of the same compound?
A: 4.21 ± 0.076 mPa·s

Q: And the mass density (313.15 K, w1 = 0.05)?
A: 1010.05 ± 0.78 kg/m3

Q: What about the mass density (313.15 K, w1 = 0.1) of the same compound?
A: 1028.22 ± 0.79 kg/m3

Q: And the mass density (313.15 K, w1 = 0.2)?
A: 1064.94 ± 0.83 kg/m3

Q: What about the mass density (313.15 K, w1 = 0.3) of the same compound?
A: 1101.95 ± 0.89 kg/m3

Q: What about the mass density (313.15 K, w1 = 0.4) of the same compound?
A: 1139.8 ± 0.96 kg/m3

Q: And the viscosity (313.15 K, w1 = 0.05)?
A: 0.8062 ± 0.02 mPa·s

Q: What about the viscosity (313.15 K, w1 = 0.1) of the same compound?
A: 0.984 ± 0.023 mPa·s

Q: And the viscosity (313.15 K, w1 = 0.2)?
A: 1.482 ± 0.031 mPa·s

Q: What about the viscosity (313.15 K, w1 = 0.3) of the same compound?
A: 2.509 ± 0.047 mPa·s

Q: What about the viscosity (313.15 K, w1 = 0.4) of the same compound?
A: 3.53 ± 0.064 mPa·s

Q: What about the mass density (318.15 K, w1 = 0.05) of the same compound?
A: 1007.96 ± 0.77 kg/m3

Q: And the mass density (318.15 K, w1 = 0.1)?
A: 1026.01 ± 0.78 kg/m3

Q: What about the mass density (318.15 K, w1 = 0.2) of the same compound?
A: 1062.47 ± 0.82 kg/m3

Q: And the mass density (318.15 K, w1 = 0.3)?
A: 1099.31 ± 0.88 kg/m3

Q: What about the mass density (318.15 K, w1 = 0.4) of the same compound?
A: 1136.71 ± 0.95 kg/m3

Q: And the viscosity (318.15 K, w1 = 0.05)?
A: 0.7245 ± 0.019 mPa·s

Q: And the viscosity (318.15 K, w1 = 0.1)?
A: 0.8784 ± 0.021 mPa·s

Q: And the viscosity (318.15 K, w1 = 0.2)?
A: 1.309 ± 0.028 mPa·s

Q: And the viscosity (318.15 K, w1 = 0.3)?
A: 2.193 ± 0.041 mPa·s

Q: What about the viscosity (318.15 K, w1 = 0.4) of the same compound?
A: 2.997 ± 0.054 mPa·s

Q: And the mass density (323.15 K, w1 = 0.05)?
A: 1005.72 ± 0.77 kg/m3

Q: And the mass density (323.15 K, w1 = 0.1)?
A: 1023.66 ± 0.78 kg/m3

Q: What about the mass density (323.15 K, w1 = 0.2) of the same compound?
A: 1059.89 ± 0.82 kg/m3

Q: And the mass density (323.15 K, w1 = 0.3)?
A: 1096.7 ± 0.88 kg/m3

Q: And the mass density (323.15 K, w1 = 0.4)?
A: 1133.56 ± 0.94 kg/m3

Q: And the viscosity (323.15 K, w1 = 0.05)?
A: 0.6556 ± 0.018 mPa·s

Q: And the viscosity (323.15 K, w1 = 0.1)?
A: 0.7874 ± 0.02 mPa·s

Q: What about the viscosity (323.15 K, w1 = 0.2) of the same compound?
A: 1.164 ± 0.026 mPa·s

Q: What about the viscosity (323.15 K, w1 = 0.3) of the same compound?
A: 1.94 ± 0.036 mPa·s

Q: And the viscosity (323.15 K, w1 = 0.4)?
A: 2.581 ± 0.046 mPa·s

Q: And the mass density (328.15 K, w1 = 0.05)?
A: 1003.32 ± 0.76 kg/m3

Q: And the mass density (328.15 K, w1 = 0.1)?
A: 1021.18 ± 0.78 kg/m3

Q: And the mass density (328.15 K, w1 = 0.2)?
A: 1057.21 ± 0.81 kg/m3

Q: What about the mass density (328.15 K, w1 = 0.3) of the same compound?
A: 1092.78 ± 0.87 kg/m3

Q: What about the mass density (328.15 K, w1 = 0.4) of the same compound?
A: 1130.34 ± 0.95 kg/m3

Q: And the viscosity (328.15 K, w1 = 0.05)?
A: 0.5983 ± 0.017 mPa·s

Q: What about the viscosity (328.15 K, w1 = 0.1) of the same compound?
A: 0.7118 ± 0.019 mPa·s

Q: And the viscosity (328.15 K, w1 = 0.2)?
A: 1.038 ± 0.023 mPa·s

Q: What about the viscosity (328.15 K, w1 = 0.3) of the same compound?
A: 1.69 ± 0.032 mPa·s

Q: And the viscosity (328.15 K, w1 = 0.4)?
A: 2.241 ± 0.04 mPa·s

Q: And the mass density (333.15 K, w1 = 0.05)?
A: 1000.79 ± 0.76 kg/m3

Q: And the mass density (333.15 K, w1 = 0.1)?
A: 1018.58 ± 0.77 kg/m3

Q: And the mass density (333.15 K, w1 = 0.2)?
A: 1054.42 ± 0.81 kg/m3

Q: And the mass density (333.15 K, w1 = 0.3)?
A: 1090.33 ± 0.86 kg/m3

Q: What about the mass density (333.15 K, w1 = 0.4) of the same compound?
A: 1127.09 ± 0.93 kg/m3
